This is an account of results in PubChem BioAssay (NCI).

Test systems include HCT-15 colon; HCC-2998 colon; SF-268 CNS; OVCAR-4 ovarian; NCI-H226 lung; CCRF-CEM leukemia; RPMI-8226 leukemia; SR leukemia; CAKI-1 renal; SK-MEL-28 melanoma.
Common to all, as to experiment: NCI-60 cell line screen, 48 h

Molecules are shown by their SMILES. Values joined by “and” are separate entries in the source; they are usually repeats but may differ in a detail not shown here. Equal values may be shown once.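 Method: 48-hour compound exposure of cells in 96-well plates, five concentrations, linear interpolation of endpoints. GI50: concentration for 50% inhibition of growth. Definition used: TGI = concentration required for complete inhibition of growth.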

For the compound `NC1CCC(Nc2nc(NCc3cc(Cl)ccc3O)c3ncn(C4CCCC4)c3n2)CC1` (stereo not drawn), the GI50 was 0.259 µM with HCT-15 colon; 0.201 µM in the assay with HCC-2998 colon; 0.188 µM with SF-268 CNS; 0.183 µM in the assay on OVCAR-4 ovarian; 0.247 µM in the assay with NCI-H226 lung; 0.127 µM with CCRF-CEM leukemia. In addition, the GI50 with RPMI-8226 leukemia was 0.202 µM; in the assay on SR leukemia, 0.0422 µM; in the assay on CAKI-1 renal, 0.295 µM; in the assay with SK-MEL-28 melanoma, 0.153 µM. In addition, the TGI with HCT-15 colon was 0.966 µM; with HCC-2998 colon it was 0.603 µM; in the assay on SF-268 CNS, 0.52 µM; with OVCAR-4 ovarian it was 0.778 µM; in the assay with NCI-H226 lung, 2.78 µM; in the assay on CCRF-CEM leukemia it was 0.532 µM. Besides, the TGI in the assay on RPMI-8226 leukemia was 0.474 µM; with SR leukemia it was 0.237 µM; in the assay with CAKI-1 renal it was 1.57 µM; in the assay with SK-MEL-28 melanoma it was 0.34 µM.
Take `Cc1ccc(/C=C/C(=N/N=C(N)N)c2ccccc2)cc1`: the GI50 is 2.74 µM with HCT-15 colon; 3.11 µM with HCC-2998 colon; 4.13 µM with SF-268 CNS; 3.65 µM in the assay on OVCAR-4 ovarian; 3.09 µM in the assay on NCI-H226 lung; 2.34 µM in the assay on CCRF-CEM leukemia. In addition, the GI50 in the assay with RPMI-8226 leukemia is 2.3 µM; in the assay on SR leukemia it was 0.897 µM; in the assay with CAKI-1 renal it was 8.97 µM; in the assay on SK-MEL-28 melanoma it was 3.95 µM. Further, the TGI is 13.8 µM in the assay on HCT-15 colon; 11.8 µM in the assay on HCC-2998 colon; 16.3 µM in the assay on SF-268 CNS; 15.6 µM with OVCAR-4 ovarian; 12.6 µM with NCI-H226 lung; 18.9 µM with CCRF-CEM leukemia. For the same compound, the TGI was determined as 7.98 µM in the assay on RPMI-8226 leukemia, 6.32 µM in the assay with SR leukemia, 25.1 µM in the assay on CAKI-1 renal and 15.8 µM with SK-MEL-28 melanoma.
As for `CCCCCCCCCCC/C=C\C[C@H](O)C/C=C1/C(=O)C=C[C@@H]1C/C=C\CCCC(=O)OC`, the GI50 in the assay on HCT-15 colon was 0.59 µM; with HCC-2998 colon it was 1.24 µM; in the assay with SF-268 CNS it was 0.939 µM; in the assay on OVCAR-4 ovarian, 0.862 µM; with NCI-H226 lung, 0.732 µM; in the assay on CCRF-CEM leukemia, 0.923 µM. Further, the GI50 in the assay on RPMI-8226 leukemia was 0.534 µM; in the assay on SR leukemia, 0.72 µM; in the assay on CAKI-1 renal, 1.07 µM; in the assay with SK-MEL-28 melanoma, 0.84 µM. The TGI in the assay on HCT-15 colon is 1.29 µM; with HCC-2998 colon, 4.01 µM; in the assay on SF-268 CNS it was 3.97 µM; with OVCAR-4 ovarian it was 3.68 µM; in the assay on NCI-H226 lung, 1.76 µM; with CCRF-CEM leukemia, 5.36 µM. The TGI turned out to be 1.62 µM in the assay on RPMI-8226 leukemia, 3.97 µM in the assay on SR leukemia, 5.62 µM with CAKI-1 renal and 2.31 µM in the assay with SK-MEL-28 melanoma.
On to `C=C(C)C1CC=C(C)CC1` (stereo not drawn), for which the TGI was 1620 µM in the assay on HCT-15 colon; > 100 µM and 1730 µM in the assay on HCC-2998 colon; > 100 µM and 1680 µM in the assay with SF-268 CNS; > 100 µM and 2070 µM with OVCAR-4 ovarian; > 100 µM and 1570 µM in the assay with NCI-H226 lung; > 100 µM and 1670 µM in the assay on CCRF-CEM leukemia. The TGI was above 100 µM in the assay on RPMI-8226 leukemia; > 100 µM and 2050 µM with SR leukemia; > 100 µM and 1680 µM with CAKI-1 renal; > 100 µM and 1680 µM in the assay on SK-MEL-28 melanoma. Besides, the GI50 in the assay with HCC-2998 colon, in the assay on SF-268 CNS, with OVCAR-4 ovarian, in the assay with NCI-H226 lung, with CCRF-CEM leukemia and with SR leukemia was above 100 µM each time. Besides, the GI50 with CAKI-1 renal and with SK-MEL-28 melanoma was above 100 µM in each case.
For `COC(=O)C1=Cc2cc(OC)c(OC)cc2[C@H](c2ccc(OC)c(OC)c2)C1C(=O)OC` (stereo partly drawn), the TGI in the assay on HCT-15 colon, in the assay on HCC-2998 colon, in the assay on SF-268 CNS, with OVCAR-4 ovarian, with NCI-H226 lung and in the assay with CCRF-CEM leukemia was above 100 µM throughout. Also, the TGI in the assay on RPMI-8226 leukemia, in the assay with SR leukemia, with CAKI-1 renal and in the assay with SK-MEL-28 melanoma was above 100 µM each time.
Consider `CNc1cc2nc3cc(NC)c(C)cc3cc2cc1C`, for which the GI50 was 3.7 µM in the assay with HCT-15 colon; 1.6 µM with HCC-2998 colon; 0.687 µM with SF-268 CNS; 1.03 µM in the assay with OVCAR-4 ovarian; 0.81 µM in the assay with NCI-H226 lung; 1.08 µM in the assay on CCRF-CEM leukemia. For the same compound, the GI50 in the assay with RPMI-8226 leukemia was 1.04 µM; in the assay with SR leukemia, 0.53 µM; in the assay on CAKI-1 renal it was 2.88 µM; with SK-MEL-28 melanoma, 5.91 µM. Besides, the TGI in the assay with HCT-15 colon came to 91.1 µM; in the assay on HCC-2998 colon, 14.7 µM; with SF-268 CNS it was 10.9 µM; with OVCAR-4 ovarian, 3.26 µM; with NCI-H226 lung it was 18.8 µM; in the assay on CCRF-CEM leukemia, 33.3 µM. Also, the TGI in the assay with RPMI-8226 leukemia is 5.12 µM; in the assay with SR leukemia, above 100 µM; in the assay on CAKI-1 renal, 17.1 µM; in the assay with SK-MEL-28 melanoma it was 20.5 µM.
For `c1ccc(Nc2nc(-c3ccccn3)cs2)nc1`, the GI50 with HCT-15 colon is 0.172 µM; in the assay with HCC-2998 colon it was 0.516 µM; in the assay on SF-268 CNS, 0.346 µM; in the assay with OVCAR-4 ovarian, 0.593 µM; with NCI-H226 lung it was 1 µM; with CCRF-CEM leukemia, 0.259 µM. Moreover, the GI50 in the assay on RPMI-8226 leukemia was 0.548 µM; with SR leukemia it was 0.308 µM; in the assay with CAKI-1 renal, 0.0992 µM; in the assay with SK-MEL-28 melanoma, 1.5 µM. Further, the TGI with HCT-15 colon was above 89.2 µM; with HCC-2998 colon it was 24.7 µM; with SF-268 CNS, above 45.5 µM; in the assay with OVCAR-4 ovarian, above 100 µM; with NCI-H226 lung, above 63.1 µM; in the assay with CCRF-CEM leukemia, above 29.6 µM. In addition, the TGI in the assay with RPMI-8226 leukemia is 76.2 µM; with SR leukemia it was 7.95 µM; with CAKI-1 renal it was 2.12 µM; in the assay on SK-MEL-28 melanoma, above 100 µM.
For `O=C1C=CC(=Nc2ccccc2)c2ccccc21`, the TGI in the assay with HCT-15 colon was 24.5 µM; in the assay on HCC-2998 colon, 23.1 µM; in the assay on SF-268 CNS, 24.8 µM; in the assay on OVCAR-4 ovarian it was 27.4 µM; in the assay with NCI-H226 lung, 28.8 µM; in the assay on CCRF-CEM leukemia, above 100 µM. Also, the TGI with RPMI-8226 leukemia came to 38.3 µM; in the assay on SR leukemia, 37.1 µM; in the assay with CAKI-1 renal it was 38.2 µM; in the assay with SK-MEL-28 melanoma, 42 µM.
